# Earlier results in patent publication US20040081632A1, “Novel antiperspirant/deodorant active for no white residue sticks and soft solids” (priority 2002, published 2004).
# Conditions: neat organic solvent
row,Compound,RI
1,1-methyl 2-propanol,1.403
2,CCOCCO [2 ethoxy ethanol],1.407
3,COCCO [2 methoxy ethanol],1.402
4,COC(C)CCO (stereo not drawn) [3 methoxy butanol],1.411

# Results, then the compound that gave them:
row,RI,Compound
1,1.430,CC(O)CO (stereo not drawn) [propylene glycol]
2,1.454,CC(O)COC(C)COC(C)CO (stereo not drawn) [tripropylene glycol]
